Measured values: patent publication US20080063668A1, “Nitroimidazole and terconazole composition and method” (priority 2006, published 2008)

Columns and labels:
Assay in all cases: Inhibition of bacteria growth, drug dilution tubes, anaerobic
Format in all cases: cell-based
Design in all cases: key: (+) for growth; (−) for no growth; (±) for suboptimal growth after an initial observation of growth
[1] = tested on: Gardnerella vaginalis ATCC 14018
Method: (§1) Serial dilutions of tinidazole and terconazole were prepared by adding measured amounts of each substance to water (both individually and in combination). Seven bacterial organisms that are common pathogens in bacterial vaginosis were grown anaerobically in the medium as listed in Table 4 under a N2/H2/CO2 (85:5:10) head space atmosphere. [table] These cultures were diluted to a 0.5 McFarland standard prior to inoculation of drug dilution tubes. One (1) mL of the 0.5 McFarland preparation was inoculated to an anaerobically prepared test tube containing 0.8 mL of Difco anaerobic medium (DAMM) and 0.2 mL of appropriate diluted antimicrobial or antimicrobial combination for a total of 2 mL. The inoculated tubes were then incubated at 37° C. and monitored daily for growth. Growth was scored with a (+) for growth, (−) for no growth, and (±) for suboptimal growth after an initial observation of growth. Tinidazole is abbreviated as TNZ and terconazole is abbreviated as TER in Tables 5 through 11.

[2] = tested on: Mobiluncus curtisii var. curtisii ATCC 35241
Method: as §1

[3] = tested on: Bacteroides fragilis ATCC 25285
Method: as §1

CC(C)N1CCN(c2ccc(OCC3COC(Cn4cncn4)(c4ccc(Cl)cc4Cl)O3)cc2)CC1 (stereo not drawn) [TER, cis-1-[p[[2-(2,4-dichlorophenyl)-2-(1 H-1,2,4-triazol-1-ylmethyl)-1,3-dioxolan-4-yl]methoxy]phenyl]-4-isopropylpiperazine]
growth ([1]; TER 3.1 μg/ml, DAY 1): (+) | growth ([1]; TER 3.1 μg/ml, DAY 2): (+) | growth ([1]; TER 3.1 μg/ml, DAY 3): (+) | growth ([1]; TER 3.1 μg/ml, DAY 4): (+) | growth ([1]; TER 3.1 μg/ml, DAY 5): (+) | growth ([1]; TER 6.2 μg/ml, DAY 1): (+) | growth ([1]; TER 6.2 μg/ml, DAY 2): (+) | growth ([1]; TER 6.2 μg/ml, DAY 3): (+) | growth ([1]; TER 6.2 μg/ml, DAY 4): (+) | growth ([1]; TER 6.2 μg/ml, DAY 5): (+) | growth ([1]; TER 12.5 μg/ml, DAY 1): (+) | growth ([1]; TER 12.5 μg/ml, DAY 2): (+) | growth ([1]; TER 12.5 μg/ml, DAY 3): (+) | growth ([1]; TER 12.5 μg/ml, DAY 4): (+) | growth ([1]; TER 12.5 μg/ml, DAY 5): (+) | growth ([1]; TER 25 μg/ml, DAY 1): (+) | growth ([1]; TER 25 μg/ml, DAY 2): (+) | growth ([1]; TER 25 μg/ml, DAY 3): (+) | growth ([1]; TER 25 μg/ml, DAY 4): (+) | growth ([1]; TER 25 μg/ml, DAY 5): (+) | growth ([1]; TER 50 μg/ml, DAY 1): (+) | growth ([1]; TER 50 μg/ml, DAY 2): (+) | growth ([1]; TER 50 μg/ml, DAY 3): (+) | growth ([1]; TER 50 μg/ml, DAY 4): (+) | growth ([1]; TER 50 μg/ml, DAY 5): (+) | growth ([1]; TER 100 μg/ml, DAY 1): (+) | growth ([1]; TER 100 μg/ml, DAY 2): (+) | growth ([1]; TER 100 μg/ml, DAY 3): (+) | growth ([1]; TER 100 μg/ml, DAY 4): (+) | growth ([1]; TER 100 μg/ml, DAY 5): (+) | growth ([1]; TER 200 μg/ml, DAY 1): (−) | growth ([1]; TER 200 μg/ml, DAY 2): (+) | growth ([1]; TER 200 μg/ml, DAY 3): (+) | growth ([1]; TER 200 μg/ml, DAY 4): (+) | growth ([1]; TER 200 μg/ml, DAY 5): (+) | growth ([1]; TER 400 μg/ml, DAY 1): (−) | growth ([1]; TER 400 μg/ml, DAY 2): (−) | growth ([1]; TER 400 μg/ml, DAY 3): (−) | growth ([1]; TER 400 μg/ml, DAY 4): (−) | growth ([1]; TER 400 μg/ml, DAY 5): (−) | growth ([1]; TER 800 μg/ml, DAY 1): (−) | growth ([1]; TER 800 μg/ml, DAY 2): (−) | growth ([1]; TER 800 μg/ml, DAY 3): (−) | growth ([1]; TER 800 μg/ml, DAY 4): (−) | growth ([1]; TER 800 μg/ml, DAY 5): (−) | growth ([2]; TER 3.1 μg/ml, DAY 1): (+) | growth ([2]; TER 3.1 μg/ml, DAY 2): (+) | growth ([2]; TER 3.1 μg/ml, DAY 3): (+) | growth ([2]; TER 3.1 μg/ml, DAY 4): (+) | growth ([2]; TER 3.1 μg/ml, DAY 5): (+) | growth ([2]; TER 6.2 μg/ml, DAY 1): (+) | growth ([2]; TER 6.2 μg/ml, DAY 2): (+) | growth ([2]; TER 6.2 μg/ml, DAY 3): (+) | growth ([2]; TER 6.2 μg/ml, DAY 4): (+) | growth ([2]; TER 6.2 μg/ml, DAY 5): (+) | growth ([2]; TER 12.5 μg/ml, DAY 1): (+) | growth ([2]; TER 12.5 μg/ml, DAY 2): (+) | growth ([2]; TER 12.5 μg/ml, DAY 3): (+) | growth ([2]; TER 12.5 μg/ml, DAY 4): (+) | growth ([2]; TER 12.5 μg/ml, DAY 5): (+) | growth ([2]; TER 25 μg/ml, DAY 1): (+) | growth ([2]; TER 25 μg/ml, DAY 2): (+) | growth ([2]; TER 25 μg/ml, DAY 3): (+) | growth ([2]; TER 25 μg/ml, DAY 4): (+) | growth ([2]; TER 25 μg/ml, DAY 5): (+) | growth ([2]; TER 50 μg/ml, DAY 1): (+) | growth ([2]; TER 50 μg/ml, DAY 2): (+) | growth ([2]; TER 50 μg/ml, DAY 3): (+) | growth ([2]; TER 50 μg/ml, DAY 4): (+) | growth ([2]; TER 50 μg/ml, DAY 5): (+) | growth ([2]; TER 100 μg/ml, DAY 1): (+) | growth ([2]; TER 100 μg/ml, DAY 2): (+) | growth ([2]; TER 100 μg/ml, DAY 3): (+) | growth ([2]; TER 100 μg/ml, DAY 4): (+) | growth ([2]; TER 100 μg/ml, DAY 5): (+) | growth ([2]; TER 200 μg/ml, DAY 1): (−) | growth ([2]; TER 200 μg/ml, DAY 2): (+) | growth ([2]; TER 200 μg/ml, DAY 5): (+) | growth ([2]; TER 400 μg/ml, DAY 1): (−) | growth ([2]; TER 400 μg/ml, DAY 2): (−) | growth ([2]; TER 400 μg/ml, DAY 3): (−) | growth ([2]; TER 400 μg/ml, DAY 4): (−) | growth ([2]; TER 400 μg/ml, DAY 5): (+) | growth ([2]; TER 800 μg/ml, DAY 1): (−) | growth ([2]; TER 800 μg/ml, DAY 2): (−) | growth ([2]; TER 800 μg/ml, DAY 3): (−) | growth ([2]; TER 800 μg/ml, DAY 4): (−) | growth ([2]; TER 800 μg/ml, DAY 5): (+) | growth ([3]; TER 3.1 μg/ml, DAY 1): (+) | growth ([3]; TER 3.1 μg/ml, DAY 2): (+) | growth ([3]; TER 3.1 μg/ml, DAY 3): (+) | growth ([3]; TER 3.1 μg/ml, DAY 4): (+) | growth ([3]; TER 3.1 μg/ml, DAY 5): (+) | growth ([3]; TER 6.2 μg/ml, DAY 1): (+) | growth ([3]; TER 6.2 μg/ml, DAY 2): (+) | growth ([3]; TER 6.2 μg/ml, DAY 3): (+) | growth ([3]; TER 6.2 μg/ml, DAY 4): (+) | growth ([3]; TER 6.2 μg/ml, DAY 5): (+) | growth ([3]; TER 12.5 μg/ml, DAY 1): (+) | growth ([3]; TER 12.5 μg/ml, DAY 2): (+) | growth ([3]; TER 12.5 μg/ml, DAY 3): (+) | growth ([3]; TER 12.5 μg/ml, DAY 4): (+) | growth ([3]; TER 12.5 μg/ml, DAY 5): (+) | growth ([3]; TER 25 μg/ml, DAY 1): (+) | growth ([3]; TER 25 μg/ml, DAY 2): (+) | growth ([3]; TER 25 μg/ml, DAY 3): (+) | growth ([3]; TER 25 μg/ml, DAY 4): (+) | growth ([3]; TER 25 μg/ml, DAY 5): (+) | growth ([3]; TER 50 μg/ml, DAY 1): (+) | growth ([3]; TER 50 μg/ml, DAY 2): (+) | growth ([3]; TER 50 μg/ml, DAY 3): (+) | growth ([3]; TER 50 μg/ml, DAY 4): (+) | growth ([3]; TER 50 μg/ml, DAY 5): (+) | growth ([3]; TER 100 μg/ml, DAY 1): (+) | growth ([3]; TER 100 μg/ml, DAY 2): (+) | growth ([3]; TER 100 μg/ml, DAY 3): (+) | growth ([3]; TER 100 μg/ml, DAY 4): (+) | growth ([3]; TER 100 μg/ml, DAY 5): (+) | growth ([3]; TER 200 μg/ml, DAY 1): (−) | growth ([3]; TER 200 μg/ml, DAY 2): (−) | growth ([3]; TER 200 μg/ml, DAY 3): (+) | growth ([3]; TER 200 μg/ml, DAY 4): (+) | growth ([3]; TER 200 μg/ml, DAY 5): (+) | growth ([3]; TER 400 μg/ml, DAY 1): (−) | growth ([3]; TER 400 μg/ml, DAY 2): (−) | growth ([3]; TER 400 μg/ml, DAY 3): (−) | growth ([3]; TER 400 μg/ml, DAY 4): (−) | growth ([3]; TER 400 μg/ml, DAY 5): (−) | growth ([3]; TER 800 μg/ml, DAY 1): (−) | growth ([3]; TER 800 μg/ml, DAY 2): (−) | growth ([3]; TER 800 μg/ml, DAY 3): (−) | growth ([3]; TER 800 μg/ml, DAY 4): (−) | growth ([3]; TER 800 μg/ml, DAY 5): (−)
